These results are taken from article PMC6600469, “Synthesis and Biological Evaluation of NH2-Sulfonyl Oseltamivir Analogues as Influenza Neuraminidase Inhibitors” (Molecules, 2019).

Data set [1] in a line: Metabolic stability in human liver microsomes in vitro. To be noted: for Remaining (T = 60 min): human liver microsomes 0.5 mg/mL, 37 °C, 60 min incubation; for half-life: human, liver microsomes. (Liver microsomes are vesicles of endoplasmic reticulum, rich in cytochrome P450 enzymes.)
In data set [2] the target is H5N1 neuraminidase (A/Anhui/2005) (Influenza A virus (H5N1), UniProt A0A0C5AGB3). Nature of the data set: biochemical. The data set is classed as biochemical, influenza A H5N1 (A/Anhui/2005). To be noted: for inhibition at 10 µM / inhibition at 100 µM: read-out: inhibition rate against NA from H5N1 subtype.
The test system of data set [3] is NAs from H5N1 (A/Chicken/China/1220/2012). The conditions noted are these: read-out: IC50 against NAs from H5N1; cited from earlier work.
In a further data set the target is neuraminidase. The conditions noted are these: cited from earlier work.
A further data set concerns mutant NAs. To be noted: cited from earlier work.

Turning to `CCC(CC)O[C@@H]1C=C(C(=O)O)C[C@H](NS(C)(=O)=O)[C@H]1NC(C)=O` [4a, (3R, 4R, 5S)-4-acetamido-5-(methylsulfonyl)amino-3-(pentan-3-yloxy) cyclohex-1-enecarboxylic acid], in data set [1], the “Remaining (T = 60 min)” value is given as 101.6% and the half-life (commonly how long it takes for the measured level to halve) is greater than 145 min. Also, in data set [2], the inhibition (usually the relative decrease from the control value, in per cent) at 10 µM is 73.9% and the inhibition at 100 µM was determined as 91.8%.

In the case of `CCC(CC)O[C@@H]1C=C(C(=O)O)C[C@H](NS(=O)(=O)CC)[C@H]1NC(C)=O` [4b, (3R, 4R, 5S)-4-acetamido-5-(ethylsulfonyl)amino-3-(pentan-3-yloxy)cyclohex-1-enecarboxylic acid], the melting point (commonly the temperature of the solid-liquid transition) is 187.7 to 190 °C. Besides, in data set [2], the inhibition at 10 µM was 50.3% and the inhibition at 100 µM is 85.1%.

Regarding `CCCS(=O)(=O)N[C@H]1CC(C(=O)O)=C[C@@H](OC(CC)CC)[C@@H]1NC(C)=O` [4c, (3R, 4R, 5S)-4-acetamido-5-(n-propylsulfonyl)amino-3-(pentan-3-yloxy)cyclohex-1-enecarboxylic acid], the melting point fell in the range of 196.3 to 198.6 °C. Moreover, in data set [2], the inhibition at 10 µM amounted to 43.2% and the inhibition at 100 µM is 56.5%.

Turning to `CCCCS(=O)(=O)N[C@H]1CC(C(=O)O)=C[C@@H](OC(CC)CC)[C@@H]1NC(C)=O` [4d, (3R, 4R, 5S)-4-acetamido-5-(n-butylsulfonyl)amino-3-(pentan-3-yloxy) cyclohex-1-enecarboxylic acid], the melting point is 183.3 to 184.4 °C. In addition, in data set [2], the inhibition at 10 µM amounted to 30.3% and the inhibition at 100 µM was determined as 53.5%.

With `CCCCCS(=O)(=O)N[C@H]1CC(C(=O)O)=C[C@@H](OC(CC)CC)[C@@H]1NC(C)=O` [4e, (3R, 4R, 5S)-4-acetamido-5-(n-pentylsulfonyl)amino-3-(pentan-3-yloxy)cyclohex-1-enecarboxylic acid], the melting point lay in the range of 179.1 to 182.8 °C. In data set [2], the inhibition at 10 µM worked out at 28.5% and the inhibition at 100 µM is 50.5%.

In turn, `CCC(CC)O[C@@H]1C=C(C(=O)O)C[C@H](NS(=O)(=O)C(F)(F)F)[C@H]1NC(C)=O` [4f, (3R, 4R, 5S)-4-acetamido-5-((trifluoromethyl)sulfonyl)amino-3-(pentan-3-yloxy)cyclohex-1-enecarboxylic acid] showed a melting point of 193.1 to 195.4 °C. Besides, in data set [2], the inhibition at 10 µM came out at 24.8% and the inhibition at 100 µM came out at 49.7%.

`CCC(CC)O[C@@H]1C=C(C(=O)O)C[C@H](NS(=O)(=O)c2ccc(NC(C)=O)cc2)[C@H]1NC(C)=O` [4g, (3R, 4R, 5S)-4-acetamido-5-((4-(acetamido)pheny)sulfonyl)amino-3-(pentan-3-yloxy)cyclohex-1-enecarboxylic acid] registered a melting point of 236.7 to 238.6 °C. The “inhibition rate against NA from H5N1 subtype” value in data set [2] (100 µM) was “little inhibition”.

Take `CCC(CC)O[C@@H]1C=C(C(=O)O)C[C@H](NS(=O)(=O)c2ccc(C(F)(F)F)cc2)[C@H]1NC(C)=O` [4h, (3R, 4R, 5S)-4-acetamido-5-((4-(trifluoromethyl)phenyl)sulfonyl)amino-3-(pentan-3-yloxy)cyclohex-1-enecarboxylic acid]: in data set [2], the inhibition at 10 µM turned out to be 40.4% and the inhibition at 100 µM is 79.2%.

For `CCC(CC)O[C@@H]1C=C(C(=O)O)C[C@H](NS(=O)(=O)c2ccccc2[N+](=O)[O-])[C@H]1NC(C)=O` [4i, (3R, 4R, 5S)-4-acetamido-5-((2-nitrophenyl)sulfonyl)amino-3-(pentan-3-yloxy)cyclohex-1-enecarboxylic acid], in data set [2], the inhibition at 10 µM is 32% and the inhibition at 100 µM is 70.1%.

Compound `CCC(CC)O[C@@H]1C=C(C(=O)O)C[C@H](NS(=O)(=O)c2cccc([N+](=O)[O-])c2)[C@H]1NC(C)=O` [4j, (3R, 4R, 5S)-4-acetamido-5-((3-nitrophenyl)sulfonyl)amino-3-(pentan-3-yloxy)cyclohex-1-enecarboxylic acid] registered a melting point of 114.3 to 115.9 °C. Further, in data set [2], the inhibition at 10 µM is 20.3% and the inhibition at 100 µM came to 33.8%.

On to `CCC(CC)O[C@@H]1C=C(C(=O)O)C[C@H](NS(=O)(=O)c2ccc([N+](=O)[O-])cc2)[C@H]1NC(C)=O` [4k, (3R, 4R, 5S)-4-acetamido-5-((4-nitrophenyl)sulfonyl)amino-3-(pentan-3-yloxy)cyclohex-1-enecarboxylic acid], for which the melting point fell in the range of 187.4 to 189.2 °C. For the same compound, in data set [2], the inhibition at 10 µM came out at 0.5% and the inhibition at 100 µM worked out at 38.9%.

Compound `CCC(CC)O[C@@H]1C=C(C(=O)O)C[C@H](NS(=O)(=O)c2ccccc2N)[C@H]1NC(C)=O` [6i, (3R, 4R, 5S)-4-acetamido-5-((2-aminophenyl)sulfonyl)amino-3-(pentan-3-yloxy)cyclohex-1-enecarboxylic acid] returned a melting point of 161.8 to 164 °C. In data set [2], the inhibition at 10 µM came out at 63.8% and the inhibition at 100 µM came out at 86.6%.

As to `CCC(CC)O[C@@H]1C=C(C(=O)O)C[C@H](NS(=O)(=O)c2cccc(N)c2)[C@H]1NC(C)=O` [6j, (3R, 4R, 5S)-4-acetamido-5-((3-aminophenyl)sulfonyl)amino-3-(pentan-3-yloxy)cyclohex-1-enecarboxylic acid], the melting point fell in the range of 177.4 to 178.1 °C. In data set [2], the inhibition at 10 µM is 37.3% and the inhibition at 100 µM amounted to 52.7%.

The compound `CCC(CC)O[C@@H]1C=C(C(=O)O)C[C@H](NS(=O)(=O)c2ccc(N)cc2)[C@H]1NC(C)=O` [6k, (3R, 4R, 5S)-4-acetamido-5-((4-aminophenyl)sulfonyl)amino-3-(pentan-3-yloxy)cyclohex-1-enecarboxylic acid] displayed a melting point of 176.7 to 181.4 °C. Also, in data set [2], the inhibition at 100 µM turned out to be 12.5%.

`CCC(CC)O[C@@H]1C=C(C(=O)O)C[C@H](NCc2ccc(-c3ccccc3)cc2)[C@H]1NC(C)=O` [A]: the IC50 (as a rule, the concentration needed to halve the response being measured) in data set [3] is 1.9 nM.

`CCC(CC)O[C@@H]1C=C(C(=O)O)C[C@H](NCc2ccc(-c3cccs3)cc2)[C@H]1NC(C)=O` [B]: the half-maximal inhibitory concentration (IC50) in data set [3] is 2.1 nM.

In the case of `CCC(CC)O[C@@H]1CC(C(=O)O)=C[C@H](n2cc(C(O)CC)nn2)[C@H]1NC(C)=O` (stereo partly shown) [C], the Ki (as a rule, the equilibrium dissociation constant of an inhibitor or competing ligand from its target) on neuraminidase was 72 nM.

For the compound `CCC(CC)O[C@@H]1C=C(C(=O)O)C[C@H](NC(C)=O)[C@H]1NC(C)=O` [D], in the data set with mutant NAs, the “inhibitory activities against mutant NAs” value is reported as “enhanced inhibitory activities”.

On to `O=C(O)Cc1ccccc1Nc1c(Cl)cccc1Cl` [Diclofenac, diclofenac], for which, in data set [1], the “Remaining (T = 60 min)” value is on record as 1.1% and the half-life came out at 9.2 min.

As for `CCC(CC)O[C@@H]1C=C(C(=O)O)C[C@H](N)[C@H]1NC(C)=O` [OC, oseltamivir carboxylate, reference compound], the “inhibition rate against NA from H5N1 subtype” value in data set [2] (10 µM) is reported as 91.0%; in data set [2] (100 µM), 95.0%.

Consider `C[C@]12CC[C@H]3[C@@H](CCC4=CC(=O)CC[C@@]43C)[C@@H]1CC[C@@H]2O` [Testosterone, testosterone], for which, in data set [1], the “Remaining (T = 60 min)” value came to 3.8% and the half-life was found to be 12.5 min.
